Measurements as given in ChEMBL document CHEMBL4418497, “Compositions and methods relating to inhibiting serine hyrdoxymethyltransferase 2 activity” (2016).

These molecules were tested against T1, Serine hydroxymethyltransferase, mitochondrial (Homo sapiens, UniProt P34897) (assay: Inhibition of His-tagged human recombinant SHMT2 expressed in Escherichia coli BLR(DE3) assessed as reduction in NADPH level using L-serine, THF and NADP+ incubated for 5 mins by SHMT2-MTHFD coupled reaction based fluorescence assay). Conditions: read-out: IC50.
T1 sequence (P34897 whole entry): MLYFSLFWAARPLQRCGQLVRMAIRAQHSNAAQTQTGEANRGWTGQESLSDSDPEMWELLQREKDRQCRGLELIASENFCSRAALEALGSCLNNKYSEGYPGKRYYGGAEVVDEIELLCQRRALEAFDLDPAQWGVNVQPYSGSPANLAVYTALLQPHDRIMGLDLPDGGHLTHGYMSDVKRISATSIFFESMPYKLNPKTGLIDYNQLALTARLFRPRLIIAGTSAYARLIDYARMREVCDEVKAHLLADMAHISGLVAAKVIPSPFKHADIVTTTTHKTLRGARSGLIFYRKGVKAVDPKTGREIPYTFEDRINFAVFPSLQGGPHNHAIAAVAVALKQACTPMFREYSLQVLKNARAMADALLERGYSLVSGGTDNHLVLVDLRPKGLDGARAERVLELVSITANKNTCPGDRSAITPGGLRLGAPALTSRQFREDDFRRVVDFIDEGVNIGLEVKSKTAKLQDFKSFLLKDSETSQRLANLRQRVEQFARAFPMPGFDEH

IC50 [µM] | SMILES
3.8 | CC(C)Cn1cc(NC(=O)Nc2ccc(Cl)cn2)c2ccccc2c1=O
3.72 | CCN(CC)S(=O)(=O)c1ccc(NC(=O)Nc2cn(CC(C)C)c(=O)c3ccccc23)cc1
2.24 | CC(C)Cn1cc(NC(=O)Nc2cccc(F)c2)c2ccccc2c1=O
2.75 | O=C(CSc1nc2ncccc2o1)Nc1ccc(S(=O)(=O)Nc2ccc(F)cc2)cc1
3.24 | CC(C)Cn1cc(NC(=O)NCC2CCN(CCc3cccs3)CC2)c2ccccc2c1=O
2.57 | COc1ccc(OC)c(CNC(=O)Nc2cn(C)c(=O)c3ccccc23)c1
4.57 | O=C1CCCC2=C1C(c1cccs1)N(S(=O)(=O)c1ccc(F)cc1)c1ccccc1N2 (configuration not stated)
2.57 | Cc1cccc(NC(=O)Nc2cn(CC(C)C)c(=O)c3ccccc23)n1
2.75 | CC(C)Cn1cc(NC(=O)NC(C)c2ccccc2)c2ccccc2c1=O (configuration not stated)
7.08 | COc1ccc(NC(=O)N2CCSc3ccccc32)cc1OC
15.5 | COc1ccc(OC)c(NC2c3ncccc3C(=O)N2c2ccccc2)c1 (configuration not stated)
2.95 | COc1cc(OC)c(NC(=O)Nc2cn(CC(C)C)c(=O)c3ccccc23)cc1Cl
2.4 | CC(C)Cn1cc(NC(=O)Nc2ccccc2)c2ccccc2c1=O
12.3 | CCc1nnc2c3ccccc3nc(Nc3ccc(OC)c(OC)c3)n12
4.07 | CC(C)Cn1cc(NC(=O)NC(c2cccs2)C(C)C)c2ccccc2c1=O (configuration not stated)
1.35 | CCOC(=O)c1c(C)oc2c1c1c(c3ccccc32)OCN(CCCC(=O)O)C1
5.89 | CC(C)Cn1cc(NC(=O)N2CCN(c3cccc(Cl)c3)CC2)c2ccccc2c1=O
2 | COc1ccc(Cl)cc1NC(=O)N1CC2CCCN2c2ccccc21 (configuration not stated)

IC50 [µM] | SMILES
2.04 | COc1ccc2nc(NC(=O)Nc3cn(CC(C)C)c(=O)c4ccccc34)sc2c1
1.66 | CC(C)Cn1cc(NC(=O)NCCc2ccsc2)c2ccccc2c1=O
3.31 | COc1ccc(Nc2nc(Nc3ccccc3)c3cnn(C)c3n2)c(OC)c1
3.09 | O=C(Nc1ccc2c(c1)OCCO2)N1Cc2ccccc2Oc2ncccc21
8.91 | CC(C)Cn1cc(NC(=O)Nc2ccc(N3CCC(C)CC3)cc2)c2ccccc2c1=O
4.57 | CC(C)Cn1cc(NC(=O)N2CCN(C(=O)c3ccco3)CC2)c2ccccc2c1=O
0.85 | Cn1nc(C(=O)N2CC=C(c3ccccc3)CC2)c2c1-c1ccsc1CC2
2.34 | O=C(Nc1cccc2c1CCCC2)N1CCSc2ncccc21
2.34 | O=C1CN(C(=O)COc2cccc3ccccc23)c2ccccc2N1
2.24 | CC(C)Cn1cc(NC(=O)Nc2cccnc2)c2ccccc2c1=O
2.34 | CCC(C)NC(=O)Nc1cn(CC(C)C)c(=O)c2ccccc12 (configuration not stated)
4.27 | CC(C)Cn1cc(NC(=O)Nc2cc(F)ccc2F)c2ccccc2c1=O
3.31 | CCOC(=O)Cc1csc(NC(=O)Nc2cn(CC(C)C)c(=O)c3ccccc23)n1
10.2 | C=CCn1c(=O)sc2cc(NC(=O)Cc3ccc(F)cc3)ccc21
4.79 | O=C(Nc1ccc2c(c1)OCCO2)N1CCc2c([nH]c3ccccc23)C1c1ccccc1F (configuration not stated)
6.46 | CCOC(=O)C1CCCN(C(=O)Nc2cn(C)c(=O)c3ccccc23)C1 (configuration not stated)
11 | O=C1CSC(c2ccccn2)N1c1ccc2ccccc2c1 (configuration not stated)
3.47 | Cc1csc(NC(=O)Nc2cn(CC(C)C)c(=O)c3ccccc23)n1

Second part, the molecule before the results:

SMILES | IC50 [µM]
CC(C)Cn1cc(NC(=O)NCCN2CCN(C)CC2)c2ccccc2c1=O | 2.45
C=CCNc1nc(Nc2ccc(OC)cc2)c2cnn(C)c2n1 | 1.62
COc1cc(OC)c(NC(=O)NCCC2=CSC3CC(C)CCC23)cc1Cl (configuration not stated) | 7.08
COc1ccc(Nc2ncnc3sc(C(=O)O)cc23)c(OC)c1 | 1.35
CNc1nc2[nH]c(=O)cc(O)c2s1 | 2.51
CCOc1ccc2nc(NC(=O)CSc3nc4ncccc4o3)sc2c1 | 4.37
CCCCN1CCS(=O)(=O)c2c(Cl)c(N3CCOCC3)nc(Oc3ccc(F)cc3)c21 | 4.57
Cc1ccc2oc(SCC(=O)Nc3ccc(S(=O)(=O)N4CCCC4)cc3)nc2n1 | 11.8
CC1CC(C)CN(CCCNC(=O)Nc2cn(C)c(=O)c3ccccc23)C1 (configuration not stated) | 10.7
COc1ccc(Nc2nnc(-n3nc(C)cc3C)c3ccccc23)cc1OC | 8.32
Cc1ccc2c(c1)c1c(n2CC(O)CNCCO)C(=O)CCC1 (configuration not stated) | 5.01
CCN(CC)CCNC(=O)c1noc2c1CCc1sccc1-2 | 4.17
COc1ccc(NC(=O)N2CCN3CCCCC3C2)cc1OC (configuration not stated) | 3.39
Cn1cc(NC(=O)NCC2CCCO2)c2ccccc2c1=O (configuration not stated) | 4.47
CCOc1ccc(NS(=O)(=O)c2ccc3c4c2CC(=O)N4CC(C)S3)cc1 (configuration not stated) | 5.01
CC(=O)Oc1cc2c(C(=O)NCC3CCCO3)c(C)oc2c2ccccc12 (configuration not stated) | 3.72
O=C(CSc1nc2ncccc2o1)Nc1ccc(S(=O)(=O)N2CCOCC2)cc1 | 2.63
COc1cc(NC(=O)C2=Cc3sc(C)c(C)c3CS2)cc(OC)c1 | 6.76
Cn1cc(NC(=O)N2CCCCC2)c2ccccc2c1=O | 9.33
COc1ccc(NCc2cccn2-c2nnc(N3CCCCC3)s2)cc1OC | 3.39
Cc1ccc2oc(SCC(=O)Nc3cccc(N4CCCC4=O)c3)nc2n1 | 4.47
COc1ccc(Nc2nnc(-n3nc(C)cc3C)c3ccccc23)c(OC)c1 | 3.47
Cc1cc2nc(CSc3nc4ccc(NC(=O)CCC5CCCC5)cc4s3)cc(=O)n2o1 | 9.55
O=c1c(Nc2cccc3c2CCCC3)c(-c2ccc(Cl)cc2)c1=O | 5.25

SMILES | IC50 [µM]
CC1=NC2c3c(oc(C(=O)NCC4CCCO4)c3C)CCC2S1 (configuration not stated) | 4.07
COc1ccc(OC)c(NS(=O)(=O)c2ccc3c(c2)S(=O)(=O)NC=N3)c1 | 4.07
Cc1cc(CNC(=O)Nc2ccc3c(c2)OCCO3)c(C)n1-c1ccc(Cl)cc1 | 8.51
COCCCNc1nc(Nc2ccc(OC)cc2)c2cnn(C)c2n1 | 2.34
CC(=O)N1CCc2c(c(=O)[nH]c3onc(C)c23)C1 | 1.41
O=C(Nc1ccc(Br)cc1F)N1CCSc2ncccc21 | 7.59
Cc1c(C(=O)NCCN2CCOCC2)oc2c1-c1[nH]ncc1CC2 | 3.55
CNC(=O)c1oc2c(c1C)C1N=C(C)SC1CC2 (configuration not stated) | 5.13
COc1ccc(-c2nc3c4nsnc4ccc3n2C)cc1Br | 0.54
Cc1c(C(=O)NCc2cccs2)oc2c1-c1[nH]ncc1CC2 | 7.94
Nc1ncccc1NC(=O)CCC(=O)O | 4.47
COC(=O)Cn1cc2c(n1)-c1c(oc(C(=O)N3CCCC3)c1C)CC2 | 6.03
CC(C)CCNC(=O)CSc1nc2ncccc2o1 | 2.51
COc1cc(OC)c(NC(=O)NCCc2csc(C)c2C)cc1Cl | 4.57
O=C(CSc1nc2ncccc2o1)Nc1ccc(S(=O)(=O)NC2CCCCC2)cc1 | 3.02
CC(C)Cn1cc(NC(=O)NCCCN2CCCC(C)C2)c2ccccc2c1=O (configuration not stated) | 2.45
CCNc1nc2[nH]c(=O)cc(O)c2s1 | 1.91
Fc1ccc(NCc2ccc3nccnc3c2)c(F)c1 | 2.75
COc1cc(OC)c(NC(=O)N2CCC3(CC2)Nc2cc(F)ccc2-n2cccc23)cc1Cl | 4.17
CCOC(=O)CSc1nc2ccc(N)cc2s1 | 0.71
Cc1c(C(=O)N2CCOCC2)oc2c1-c1nn(CC(=O)NC3CCCCC3C)cc1CC2 (configuration not stated) | 3.16
CC(C)Cn1cc(NC(=O)NCCN2CCC(C)CC2)c2ccccc2c1=O | 3.8
O=C(Nc1cc(F)c2nc(N3CCOCC3)ccc2c1)C1CC1 | 1.17
CCC(CC)C(=O)Nc1cc(F)c2nc(N3CCOCC3)ccc2c1 | 5.13

SMILES | IC50 [µM]
CCOc1ccc(C2CC(=O)N3CN(c4ccc(OCC)cc4)CSC3=C2C#N)cc1 (configuration not stated) | 10.5
CC1=NC2c3c(oc(C(=O)NC4CCCC4)c3C)CCC2S1 (configuration not stated) | 4.37
CCc1ccc(NS(=O)(=O)c2ccc3c4c2CC(=O)N4CC(C)S3)cc1 (configuration not stated) | 2.14
CCOC(=O)C1CCCN(c2cc(C(=O)O)c3cc(N)ccc3n2)C1 (configuration not stated) | 5.5
COc1cc(NC(=O)N2CCSc3ncccc32)cc(OC)c1 | 2.57
CC(C)Cn1cc(NC(=O)NCCN2CCCCC2)c2ccccc2c1=O | 1.74
COc1c(C)cnc(CSc2nc3ncccc3o2)c1C | 4.07
COc1ccc(NC(=O)n2ncc3cc(Cl)ccc32)cc1OC | 9.77
CCCCCC(C)n1nc(O)c2c(C)cc(=O)[nH]c21 (configuration not stated) | 7.08
Cc1c(C(=O)NCc2ccco2)oc2c1-c1[nH]ncc1CC2 | 6.92
CCC1c2ccc(C)n2CCN1C(=O)Nc1cc(OC)ccc1OC (configuration not stated) | 6.31
CC(C)Cn1cc(NC(=O)NC2CCCCC2)c2ccccc2c1=O | 1.74
COc1cccc(NS(=O)(=O)c2ccc3c4c2CC(=O)N4CC(C)S3)c1 (configuration not stated) | 3.63
CC(C)CC(=O)Nc1cc(F)c2nc(N3CCOCC3)ccc2c1 | 2.57
COc1ccc(OC)c(Nc2c(-c3cc(C)c(C)cc3C)c(=O)c2=O)c1 | 10
CC(=O)Nc1ncc2c(n1)CC(c1ccco1)CC2=O (configuration not stated) | 4.57
O=C(Nc1cc(F)c2nc(N3CCCC3)ccc2c1)C1CCCCC1 | 2.57
Cc1cc(NC(=O)N2CCSc3ncccc32)ccc1Br | 4.37
Cc1c(C(=O)N2CCOCC2)oc2c1-c1nn(CC(=O)NC3CCCC(C)C3C)cc1CC2 (configuration not stated) | 2.69
O=C(Cc1cccs1)Nc1cc(F)c2nc(N3CCOCC3)ccc2c1 | 4.79
O=C(Nc1cc(F)c2nc(N3CCOCC3)ccc2c1)C1CCC1 | 1.55
Cc1nc(SCC(=O)Nc2cccc3nsnc23)oc1C | 2.51

Same assay, conditions: read-out: pIC50 (converted)

IC50 [µM] | SMILES
1.95 | O=C(O)CCc1nc(-c2ccccc2)c(-c2ccccc2)o1 [OXAPROZIN]
